Measurements reported in paper PMC9749988 (PLOS ONE, 2022).
Read-outs that look alike come from different tables or passages of the source.

Experiments:
[1] = target: T1, A1R (Mus musculus, UniProt Q60612); format: binding; conditions: mean ± SEM, read-out: DPCPX equilibrium dissociation constant (KD)
T1 construct: To obtain the P1 fraction, cerebral cortex and spinal cord were homogenized in chilled sucrose; from tissue; host or cells: cerebral cortex and spinal cord membranes (P1 fraction) of SOD1-G93A transgenic and WT B6SJL mice
T1 sequence (Q60612 1-326): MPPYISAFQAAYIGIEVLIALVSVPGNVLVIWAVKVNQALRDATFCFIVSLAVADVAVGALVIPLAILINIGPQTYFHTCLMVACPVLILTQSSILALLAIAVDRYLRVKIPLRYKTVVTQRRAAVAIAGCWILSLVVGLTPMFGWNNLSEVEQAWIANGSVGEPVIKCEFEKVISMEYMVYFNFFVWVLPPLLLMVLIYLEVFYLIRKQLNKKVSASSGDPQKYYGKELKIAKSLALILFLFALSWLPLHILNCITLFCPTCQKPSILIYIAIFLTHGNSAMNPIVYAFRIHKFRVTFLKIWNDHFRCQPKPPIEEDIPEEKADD
Procedure: The radioligand-binding experiments were performed as previously described with membrane fractions (total membranes, P1 fraction). To obtain the P1 fraction, cerebral cortex and spinal cord were homogenized in chilled sucrose (pH 7.6), centrifuged at 3000 g, the pellet discarded, and the supernatant centrifuged at 14000 g (P1 fraction). The P1 fraction was then resuspended in sucrose (pH 7.6). Protein quantification was done with DC™ Protein Assay kit (Bio-Rad Laboratories, CA, USA), with bovine serum albumin (BSA) as the reference standard. […] Non-specific binding was measured in the presence of 2 μM of Xanthine Amine Congener (XAC, Tocris Bioscience, Bristol, United Kingdom), and the resulting values were subtracted from those obtained with [^3H]DPCPX to determine the specific binding and normalized for protein concentration. Results are expressed as femtomole per mg of total protein (fmol/mg).

[2] = system: VEGFA; assay: VEGFA protein levels by ELISA after chronic caffeine treatment; format: in vivo, mouse; conditions: for VEGFA protein levels: caffeine 0.3mg/ml in drinking water from 11 weeks, mean ± SEM
Procedure: (§1) Cortex and spinal cord samples were homogenized in […] (RIPA) lysis buffer (1M Tris pH 8.0, 0.5M EDTA pH 8.0, 5M NaCl, 10% NP-40, 50% Glycerol), supplemented with cOmpleteTM Mini protease inhibitor cocktail tablets (Roche, Penzberg, Germany) and centrifuged. Protein quantification was performed using the DC™ Protein Assay kit (Bio-Rad Laboratories, Hercules, CA, USA). VEGFA, VEGFR-1 and VEGFR-2 protein levels were quantified with the DuoSet® ELISA Development System Kit (R&D Systems, Abingdon, UK), according to manufacturer instructions. Assessment of VEGFB protein levels was performed with the Mouse VEGFB ELISA Kit (Thermo Scientific, Massachusetts, USA), also according to manufacturer instructions. […] To improve BDNF detection, samples were acidified with HCl 1M, until reaching approximately pH 2.6. After 10 to 20 minutes, NaOH was added to neutralize the samples to pH 7.6. Absorbances were read in a microplate reader (Microplate Reader TECAN Infinite M200, Männedorf, Switzerland) at 450nm and 540nm, with the latter being subtracted to the former with the goal of correcting for differences in plate background. Results are expressed as picograms per milligram of total protein (pg/mg).
(§2) During the experimental period, animals had ad libitum access to water, independently of treatment group. […] After 5–7 weeks of treatment, mice were sacrificed, cortex and spinal cord samples were removed and snap frozen in liquid nitrogen. All samples were kept at -80°C for posterior analysis.

[3] = system: VEGFR-2; assay: VEGFR-2 protein levels by ELISA after chronic caffeine treatment; format: in vivo, mouse; conditions: caffeine 0.3mg/ml in drinking water from 11 weeks, mean ± SEM
Procedure: as §1
After 5–7 weeks of treatment, mice were sacrificed, cortex and spinal cord samples were removed and snap frozen in liquid nitrogen. All samples were kept at -80°C for posterior analysis.

[4] = system: BDNF; assay: BDNF protein levels by ELISA after chronic caffeine treatment; format: in vivo, mouse; conditions: caffeine 0.3mg/ml in drinking water from 11 weeks, mean ± SEM
Procedure: as §1, §2

[5] = system: SOD1^G93A mice; conditions: cited from earlier work
[6] = system: VEGFB; assay: VEGFB protein levels by ELISA after chronic caffeine treatment; format: in vivo, mouse; conditions: caffeine 0.3mg/ml in drinking water from 11 weeks, mean ± SEM
Procedure: as §1, §2

[7] = Changes in animal body weight during chronic caffeine treatment (AUC of weight change); format: in vivo, mouse; conditions: for Area under the curve (AUC) of change in body weight: caffeine 0.3mg/ml in drinking water from 11th to 16-18th week of age, weight change vs first day of administration (PND 72), mean ± SEM; for Weight gain compared to vehicle treatment: caffeine 0.3mg/ml in drinking water
Procedure: as §2
Animal body weight was monitored throughout the chronic drug administration experiments, with animals being weighed once every 2 to 3 days. We used weight changes a proxy of the disease state, as it was described that SOD1^G93A mice show a gradual loss of weight through time, and that these correlate with other disease states indicators. We decided not to use behavioral data (eg RotaRod performance) to avoid changes in protein levels or expression due to physical exercise, which would have even more impact in SOD1^G93A mice than in WT, thus introducing an additional variable and therefore making comparisons more difficult.
Because SOD1^G93A tend to generally weight less than their WT counterparts, group comparisons of absolute weight were deemed inadequate. As such, changes in the body weight of each animal were calculated by subtracting the weight of that animal on the first day of drug administration (72nd day of life) to its weight at each subsequent time-point, with results being expressed in grams. To facilitate comparison of treatment effects, the area under the curve (AUC) of these changes in weight was obtained.

[8] = system: VEGFR-1; assay: VEGFR-1 protein levels by ELISA after chronic caffeine treatment; format: in vivo, mouse; conditions: caffeine 0.3mg/ml in drinking water from 11 weeks, mean ± SEM
Procedure: as §1, §2

[9] = Water intake during chronic caffeine treatment; format: in vivo; conditions: WT and SOD1^G93A mice; tap water or caffeine (0.3mg/ml); approximately 5–6 mL per day per mouse
Procedure: as §2

[10] = system: SOD1^G93A mice; conditions: caffeine 0.3mg/ml in drinking water from 11th week of age

With `CCCn1c(=O)c2[nH]c(C3CCCC3)nc2n(CCC)c1=O` [DPCPX, [^3H]-8-Cyclopentyl-1,3-dipropylxanyine] the Kd ([1]; cortex, WT mice age-matched to pre-symptomatic (4–6 weeks old)) was 3.1 ± 1.55 nM, the Kd ([1]; cortex, WT mice age-matched to symptomatic (12–14 weeks old)) was 7.98 ± 1.01 nM and the Kd ([1]; cortex, pre-symptomatic SOD1^G93A mice (4–6 weeks old)) was 4.97 ± 1.07 nM. For the same compound, the Kd ([1]; cortex, symptomatic SOD1^G93A mice (12–14 weeks old)) was 4.43 ± 0.821 nM, the Kd ([1]; spinal cord, WT mice age-matched to pre-symptomatic (4–6 weeks old)) was 15 ± 3.83 nM and the Kd ([1]; spinal cord, WT mice age-matched to symptomatic (12–14 weeks old)) was 4.32 ± 0.924 nM. The Kd ([1]; spinal cord, pre-symptomatic SOD1^G93A mice (4–6 weeks old)) was 12 ± 4.55 nM and the Kd ([1]; spinal cord, symptomatic SOD1^G93A mice (12–14 weeks old)) was 11.1 ± 3.47 nM.
In the case of `Cn1c(=O)c2c(ncn2C)n(C)c1=O` [caffeine], the “Effect of caffeine upon VEGFA protein levels” value ([2]; cortex, WT and SOD1^G93A mice 16–18 weeks old, caffeine 0.3mg/ml in drinking water) is reported as “absence of effect”, the VEGFA protein levels ([2]; cortex, WT mice 16–18 weeks old, WT-VEH 3.62) is reported as 2.05 ± 0.324 pg/mg protein and the VEGFA protein levels ([2]; spinal cord, SOD1^G93A mice 16–18 weeks old, SOD-VEH 4.151 ± 0.820) is reported as 3.743 ± 1.018 pg/mg protein. For the same compound, the VEGFA protein levels ([2]; spinal cord, WT mice 16–18 weeks old, WT-VEH 2.798) was 3.774 ± 0.451 pg/mg protein, the VEGFR-2 protein levels ([3]; cortex, SOD1^G93A mice 16–18 weeks old, SOD-VEH 45.41 ± 5.938) was 50.51 ± 6.925 pg/mg protein and the VEGFR-2 protein levels ([3]; cortex, WT mice 16–18 weeks old, WT-VEH 45.14 ± 4.019) was 39.02 ± 4.077 pg/mg protein. For the same compound, the VEGFR-2 protein levels ([3]; spinal cord, WT mice 16–18 weeks old, WT-VEH 108 ± 32.5) was 121 ± 40.6 pg/mg protein, the BDNF protein levels ([4]; cortex, SOD1^G93A mice 16–18 weeks old, SOD-VEH 29.75 ± 4.560, p = 0.042) was 13.85 ± 2.372 pg/mg protein and the BDNF protein levels ([4]; cortex, WT mice 16–18 weeks old, WT vehicle 20.96 ± 1.403, p = 0.020) was 40.24 ± 6.342 pg/mg protein. The BDNF protein levels ([4]; spinal cord, SOD1^G93A mice 16–18 weeks old, SOD-VEH 19.34, p = 0.038, high variability) was 49.10 ± 10.82 pg/mg protein, the BDNF protein levels ([4]; spinal cord, WT mice 16–18 weeks old) was 14.37 ± 4.488 pg/mg protein and the “Effect on ALS symptoms” value [5] was “exacerbates ALS symptoms”. The VEGFB protein levels ([6]; cortex, SOD1^G93A mice 16–18 weeks old, SOD-VEH 164.7 ± 10.79) was 157.8 ± 13.94 pg/mg protein, the VEGFB protein levels ([6]; cortex, WT mice 16–18 weeks old, WT-VEH 166.8 ± 20.91) was 170.7 ± 33.07 pg/mg protein and the VEGFB protein levels ([6]; spinal cord, SOD1^G93A mice 16–18 weeks old, SOD-VEH 545.6 ± 35.13) was 545.3 ± 55.72 pg/mg protein. The VEGFB protein levels ([6]; spinal cord, WT mice 16–18 weeks old, WT-VEH 366.0 ± 64.68) was 366.5 ± 90.97 pg/mg protein, the “Area under the curve (AUC) of change in body weight” value ([7]; SOD1^G93A mice, SOD-VEH 12.90 ± 3.033) was 22.70 ±3.795 and the “Weight gain compared to vehicle treatment” value ([7]; SOD1^G93A mice, not statistically significant (p = 0.058)) was “trend towards an increase in weight gain”. The “Area under the curve (AUC) of change in body weight” value ([7]; WT mice, WT-VEH 71.20 ± 2.011) was 83.40 ± 4.743, the “Weight gain compared to vehicle treatment” value ([7]; WT mice, p = 0.039) was “small but statistically significant increase in weight gain” and the VEGFR-1 protein levels ([8]; cortex, SOD1^G93A mice 16–18 weeks old, SOD-VEH 905.1 ± 30.64) was 926.5 ± 89.92 pg/mg protein. The VEGFR-1 protein levels ([8]; cortex, WT mice 16–18 weeks old, WT-VEH 1078 ± 90.79) was 1004 ± 146.9 pg/mg protein, the VEGFR-1 protein levels ([8]; spinal cord, SOD1^G93A mice 16–18 weeks old, SOD-VEH 919.3 ± 50.34) was 1048 ± 115.2 pg/mg protein and the “Water intake, difference between treatment groups” value [9] was “No substantial differences”. The “Symptoms on visual inspection” value [10] was “trend to symptoms aggravation” and the “Time to humane endpoint (onset of hindlimb paresis) vs vehicle treated SOD1^G93A mice” value [10] was “slightly earlier”.
